Measurements as given in ChEMBL document CHEMBL4138283, “Cyclizidine-Type Alkaloids from Streptomyces sp. HNA39” (J Nat Prod, 2018).

Legend:
HCT-116 = test: Cytotoxicity against human HCT116 cells by sulforhodamine B assay; assay type: functional, cell-based
PC-3 = test: Cytotoxicity against human PC3 cells by sulforhodamine B assay; assay type: functional, cell-based
[1] = target: Rho-associated protein kinase 2 (Homo sapiens, UniProt O75116); test: Inhibition of ROCK2 (unknown origin) using SKT S2 as substrate measured after 30 mins by HTRF assay
Chain of Rho-associated protein kinase 2 (O75116 whole entry): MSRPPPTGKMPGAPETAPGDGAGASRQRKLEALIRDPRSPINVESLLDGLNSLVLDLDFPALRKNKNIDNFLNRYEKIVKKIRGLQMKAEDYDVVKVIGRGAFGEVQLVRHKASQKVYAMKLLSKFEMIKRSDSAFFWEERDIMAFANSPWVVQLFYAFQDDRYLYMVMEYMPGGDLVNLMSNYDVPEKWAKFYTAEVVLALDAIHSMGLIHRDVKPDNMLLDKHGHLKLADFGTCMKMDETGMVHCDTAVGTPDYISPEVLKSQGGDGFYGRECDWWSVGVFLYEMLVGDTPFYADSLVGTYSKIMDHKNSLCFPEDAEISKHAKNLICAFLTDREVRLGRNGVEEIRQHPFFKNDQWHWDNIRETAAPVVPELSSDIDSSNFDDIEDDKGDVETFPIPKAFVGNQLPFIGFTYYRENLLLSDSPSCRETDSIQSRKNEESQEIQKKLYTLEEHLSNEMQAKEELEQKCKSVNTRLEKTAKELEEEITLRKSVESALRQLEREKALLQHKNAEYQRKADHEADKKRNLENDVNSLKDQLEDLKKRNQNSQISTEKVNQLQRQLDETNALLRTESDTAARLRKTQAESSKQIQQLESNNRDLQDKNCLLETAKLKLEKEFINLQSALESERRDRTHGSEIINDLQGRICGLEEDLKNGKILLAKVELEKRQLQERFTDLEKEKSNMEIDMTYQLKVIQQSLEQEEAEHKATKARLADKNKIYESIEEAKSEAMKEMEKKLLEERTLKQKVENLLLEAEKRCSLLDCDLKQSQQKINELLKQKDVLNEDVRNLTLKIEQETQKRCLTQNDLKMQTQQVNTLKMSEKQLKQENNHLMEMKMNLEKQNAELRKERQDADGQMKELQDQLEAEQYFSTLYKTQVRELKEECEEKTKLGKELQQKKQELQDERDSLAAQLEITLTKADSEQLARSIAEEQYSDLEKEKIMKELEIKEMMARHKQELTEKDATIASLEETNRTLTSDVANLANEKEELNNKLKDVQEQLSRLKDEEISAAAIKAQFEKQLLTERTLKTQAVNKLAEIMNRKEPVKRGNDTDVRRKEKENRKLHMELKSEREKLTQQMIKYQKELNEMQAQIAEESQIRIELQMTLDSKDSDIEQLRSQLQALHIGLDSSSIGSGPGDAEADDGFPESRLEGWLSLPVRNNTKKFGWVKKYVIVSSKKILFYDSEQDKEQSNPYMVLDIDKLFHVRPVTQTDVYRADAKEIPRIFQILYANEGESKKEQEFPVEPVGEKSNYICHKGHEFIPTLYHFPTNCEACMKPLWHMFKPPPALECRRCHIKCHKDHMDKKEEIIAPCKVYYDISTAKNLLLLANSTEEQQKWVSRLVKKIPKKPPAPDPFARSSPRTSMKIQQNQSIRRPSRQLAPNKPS

IC50 [1] | SMILES | IC50 (HCT-116) | IC50 (PC-3)
> 100 µM | CC(/C=C/C1CC1)=C\[C@H]1[C@H](O)[C@@](C)(O)[C@H]2[C@H](O)[C@@H](Cl)CCN12 | 40 µM | 33 µM
> 100 µM | CC(/C=C/C1CC1)=C\[C@H]1[C@H](O)[C@@](C)(O)c2cccc[n+]21 | > 40 µM | > 40 µM
> 100 µM | C/C(=C\C=C\CCO)C[C@H]1[C@H](O)[C@@](C)(O)[C@H]2CCCCN12 | > 40 µM | > 40 µM
7 µM | CC(/C=C/C1CC1)=C\[C@H]1[C@H](O)[C@@](C)(O)[C@H]2[C@H](O)[C@@H](O)CCN12 | 8.3 µM | 0.52 µM
42 µM | C/C(=C\C=C\CCO)C[C@H]1[C@H](O)[C@@](C)(O)[C@H]2[C@H](O)[C@@H](Cl)CCN12 | > 40 µM | 17 µM
> 100 µM | CC(/C=C/C1CC1)=C\[C@H]1[C@H](O)[C@@](C)(O)[C@H]2[C@@H]3O[C@@H]3CCN12 | 28 µM | 23 µM
27 µM | CC(/C=C/C1CC1)=C\[C@H]1[C@H](O)[C@@](C)(O)c2c(O)ccc[n+]21 | > 40 µM | > 40 µM
> 100 µM | CC(/C=C/C1CC1)=C\[C@H]1[C@H](O)[C@@](C)(O)[C@H]2CCCCN12 | > 40 µM | > 40 µM
 | CN[C@@H]1C[C@H]2O[C@@](C)([C@@H]1OC)n1c3ccccc3c3c4c(c5c6ccccc6n2c5c31)C(=O)NC4 [STAUROSPORINE] |  | 0.017 µM
39 µM | C/C(=C/C=C/CCO)C[C@H]1[C@H](O)[C@@](C)(O)[C@H]2[C@H](O)[C@@H](Cl)CCN12 | > 40 µM | > 40 µM
